From article PMC7312375, “A Novel, Pan-PDE Inhibitor Exerts Anti-Fibrotic Effects in Human Lung Fibroblasts via Inhibition of TGF-β Signaling and Activation of cAMP/PKA Signaling” (International Journal of Molecular Sciences, 2020)

Tests used:
[1] = biological target: T1, PDE1B (Homo sapiens, UniProt Q01064); assay: PDE-Glo assay, human recombinant PDE1B; type: biochemical; conditions: n.a. = not active; read-out: PDE-IC50 1B
T1 construct: purchased SignalChem
Procedure: (§1) Inhibitory activities of the investigated compounds against various subtypes of human recombinant (hr)PDEs, namely PDE1A, PDE1B, PDE1C, PDE3A, PDE3B, PDE4A, PDE4B, PDE4D, PDE7A, and PDE8A were assessed using a PDE-Glo^TM Assay Kit (Promega, Madison, WI, USA) according to the protocol provided by the manufacturer. Briefly, appropriate amounts of each enzyme (SignalChem, Richmond, B.C., Canada), diluted with PDE-Glo reaction buffer, were distributed on a 384-well plate (Thermo Scientific, Waltham, MA, USA). The investigated compounds were dissolved in DMSO, diluted with the same vehicle, and mixed with the reaction buffer at a v/v ratio of 1:5. Thereafter, 1 µL of these mixtures and 2.5 µL of the cAMP solution as a substrate were added. The final cAMP concentration was 0.05 µM. The samples were incubated for 10 min at 30 °C. […] Finally, 10 µL of PDE-Glo kinase reagent was added, and luminescence was measured using the POLARstar Omega plate reader (BMG LABTECH, Ortenberg, Germany). […] The relative activities (A, %) of all samples were calculated from the following equation: A = [(LUsample − LUblank)/(LUcontrol − LUblank)]·100%; where LUcontrol is the luminescence of a control sample in the absence of a PDE inhibitor, LUsample is a luminescence of an investigated sample in the presence of an inhibitor, and LUblank is a luminescence of a sample in the absence of enzyme (activity = 0). […]

[2] = biological target: T2, PDE3A (Homo sapiens, UniProt Q14432); assay: PDE-Glo assay, human recombinant PDE3A; type: biochemical; conditions: n.a. = not active; read-out: PDE-IC50 3A
T2 construct: purchased SignalChem
Procedure: as §1

[3] = biological target: T3, PDE4B (Homo sapiens, UniProt Q07343); conditions: published previously; read-out: PDE-IC50 4B; cited from earlier work
T3 construct: purchased SignalChem

[4] = biological target: T4, PDE7A (Homo sapiens, UniProt Q13946); conditions: published previously; read-out: PDE-IC50 7A; cited from earlier work
T4 construct: purchased SignalChem

[5] = biological target: T5, PDE8A (Homo sapiens, UniProt O60658); assay: PDE-Glo assay, human recombinant PDE8A; type: biochemical; conditions: n.a. = not active; read-out: PDE-IC50 8A
T5 construct: purchased SignalChem
Procedure: as §1

[6] = system: TGF-β1-induced MRC-5 cells; assay: qPCR of myofibroblast marker genes in TGF-β1-induced MRC-5; type: cell-based, human; conditions: 10 µM, 24 h TGF-β1 5 ng/mL; compared to TGF-β1 alone
Procedure: Quantitative polymerase chain reaction (qPCR) was performed to assess the expression level of selected human genes: ACTA2, MYH11, SM22, COL1A1, TNC, FN1, and VCAN. MRC-5 cells were preincubated with study compounds (10 µM) for 1 h, followed by 24 h incubation with TGF-β1, and then total RNA was extracted using Total RNA Mini Kit (A&A Biotechnology, Gdynia, Poland) according to the manufacturer’s protocol. RNA concentration was measured with a BioSpectrometer® basic (Eppendorf), and equal amounts of total RNA (about 1 µg) were reverse-transcribed using the iScript™ cDNA Synthesis Kit (BioRad, Hercules, CA, USA). qPCR assays were performed using the CFX96 Touch Real-Time PCR Detection System (BioRad, Hercules, CA, USA) and SsoAdvanced^TM Universal SYBR® Green Supermix (BioRad, Hercules, CA, USA). qPCR cycling was performed with denaturation at 94 °C for 30 s, annealing at 59 °C for 30 s and an extension at 72 °C for 30 s. The relative abundance of specific mRNA transcripts was estimated based on cycle threshold (Ct) value and recalculated against the endogenous reference 18S ribosomal RNA gene (18S rRNA) using the ∆Ct method. The experiments were run three times in duplicates.

[7] = system: TGF-β1-induced MRC-5 cells; assay: In-cell ELISA of α-SMA and collagen I; type: cell-based, human; conditions: 10 µM, 48 h TGF-β1 5 ng/mL
Procedure: The relative α-SMA and collagen I level in MRC-5 cells were measured using an in-cell ELISA assay. Study compounds (10 µM) were added 1 h before TGF-β1 treatment, and the content of both proteins in fibroblasts was determined after 48 h of incubation. Briefly, MRC-5 were fixed in methanol, permeabilized and blocked in 1% bovine serum albumin (BSA) with 0.1% Tween® 20 and then immunostained with primary mouse, monoclonal anti-α-SMA or anti-collagen type I antibodies (#A2547 or #SAB4200678, respectively, Sigma Aldrich, St. Louis, MO, USA), followed by secondary, anti-mouse, peroxidase-conjugated antibody (#A9044, Sigma Aldrich, St. Louis, MO, USA). The colorimetric reaction resulting from the addition of peroxidase substrate was stopped, and the absorbance was measured at 450 nm. The relative protein amount was normalized to the total cell number in each sample (Janus Green staining). The experiments were run four times in duplicates.

[8] = biological target: T6, PDE4D (Homo sapiens, UniProt Q08499); set-up: method as in PMID 31705904; conditions: published previously; read-out: PDE-IC50 4D; cited from earlier work
T6 construct: purchased SignalChem
T6 sequence (Q08499 whole entry): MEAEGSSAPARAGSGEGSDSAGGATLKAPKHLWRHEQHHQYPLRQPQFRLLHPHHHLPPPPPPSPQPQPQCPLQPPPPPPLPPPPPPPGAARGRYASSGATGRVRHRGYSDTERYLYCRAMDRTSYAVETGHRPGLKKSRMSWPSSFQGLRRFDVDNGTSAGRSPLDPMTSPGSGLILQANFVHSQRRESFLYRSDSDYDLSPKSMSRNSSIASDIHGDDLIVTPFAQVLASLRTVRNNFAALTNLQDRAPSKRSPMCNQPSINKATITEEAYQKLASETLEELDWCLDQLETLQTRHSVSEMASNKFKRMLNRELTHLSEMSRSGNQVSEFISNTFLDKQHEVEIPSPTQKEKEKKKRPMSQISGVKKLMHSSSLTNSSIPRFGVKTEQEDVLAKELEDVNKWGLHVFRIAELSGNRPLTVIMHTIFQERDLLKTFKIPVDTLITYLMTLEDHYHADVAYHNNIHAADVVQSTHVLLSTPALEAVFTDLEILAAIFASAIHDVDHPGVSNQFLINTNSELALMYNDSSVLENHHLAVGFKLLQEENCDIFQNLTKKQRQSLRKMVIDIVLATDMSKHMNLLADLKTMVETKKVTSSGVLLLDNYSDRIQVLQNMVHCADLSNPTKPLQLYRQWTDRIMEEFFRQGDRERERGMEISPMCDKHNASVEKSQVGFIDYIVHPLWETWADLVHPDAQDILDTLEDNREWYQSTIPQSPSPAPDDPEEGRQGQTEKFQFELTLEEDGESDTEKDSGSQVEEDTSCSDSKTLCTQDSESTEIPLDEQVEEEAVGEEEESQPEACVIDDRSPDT

T5 sequence (O60658 whole entry): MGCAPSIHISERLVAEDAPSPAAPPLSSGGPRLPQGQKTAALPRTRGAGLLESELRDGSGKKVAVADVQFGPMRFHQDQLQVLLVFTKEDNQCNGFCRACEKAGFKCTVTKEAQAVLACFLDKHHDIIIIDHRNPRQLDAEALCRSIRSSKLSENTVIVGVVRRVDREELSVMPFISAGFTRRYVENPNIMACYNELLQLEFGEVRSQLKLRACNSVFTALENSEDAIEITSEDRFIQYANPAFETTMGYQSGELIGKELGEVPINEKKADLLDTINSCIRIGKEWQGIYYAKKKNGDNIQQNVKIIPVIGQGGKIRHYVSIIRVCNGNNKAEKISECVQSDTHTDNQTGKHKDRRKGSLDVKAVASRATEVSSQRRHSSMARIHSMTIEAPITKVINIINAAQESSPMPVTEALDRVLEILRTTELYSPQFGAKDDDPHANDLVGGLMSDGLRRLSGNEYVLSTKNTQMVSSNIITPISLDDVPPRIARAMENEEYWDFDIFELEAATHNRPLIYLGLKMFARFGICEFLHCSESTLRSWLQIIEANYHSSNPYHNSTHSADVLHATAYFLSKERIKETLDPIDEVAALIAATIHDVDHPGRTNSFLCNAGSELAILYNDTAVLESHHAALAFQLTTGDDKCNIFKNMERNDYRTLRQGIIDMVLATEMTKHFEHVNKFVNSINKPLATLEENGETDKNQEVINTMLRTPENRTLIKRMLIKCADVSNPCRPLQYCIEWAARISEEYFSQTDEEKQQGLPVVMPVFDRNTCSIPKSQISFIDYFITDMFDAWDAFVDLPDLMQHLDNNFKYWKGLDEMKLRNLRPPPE
T4 sequence (Q13946 whole entry): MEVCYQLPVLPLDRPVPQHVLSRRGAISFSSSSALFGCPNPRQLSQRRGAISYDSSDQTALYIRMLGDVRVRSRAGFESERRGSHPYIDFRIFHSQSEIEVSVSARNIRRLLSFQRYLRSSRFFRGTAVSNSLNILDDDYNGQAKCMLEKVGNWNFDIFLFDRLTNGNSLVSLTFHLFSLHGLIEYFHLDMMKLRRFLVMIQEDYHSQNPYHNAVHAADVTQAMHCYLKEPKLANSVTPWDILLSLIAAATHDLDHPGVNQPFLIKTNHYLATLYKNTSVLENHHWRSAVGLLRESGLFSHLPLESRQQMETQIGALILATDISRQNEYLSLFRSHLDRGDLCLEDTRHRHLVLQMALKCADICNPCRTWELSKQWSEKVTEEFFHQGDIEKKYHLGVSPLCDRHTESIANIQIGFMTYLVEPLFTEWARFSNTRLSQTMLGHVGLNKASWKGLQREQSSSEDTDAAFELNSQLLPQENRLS
T1 sequence (Q01064 whole entry): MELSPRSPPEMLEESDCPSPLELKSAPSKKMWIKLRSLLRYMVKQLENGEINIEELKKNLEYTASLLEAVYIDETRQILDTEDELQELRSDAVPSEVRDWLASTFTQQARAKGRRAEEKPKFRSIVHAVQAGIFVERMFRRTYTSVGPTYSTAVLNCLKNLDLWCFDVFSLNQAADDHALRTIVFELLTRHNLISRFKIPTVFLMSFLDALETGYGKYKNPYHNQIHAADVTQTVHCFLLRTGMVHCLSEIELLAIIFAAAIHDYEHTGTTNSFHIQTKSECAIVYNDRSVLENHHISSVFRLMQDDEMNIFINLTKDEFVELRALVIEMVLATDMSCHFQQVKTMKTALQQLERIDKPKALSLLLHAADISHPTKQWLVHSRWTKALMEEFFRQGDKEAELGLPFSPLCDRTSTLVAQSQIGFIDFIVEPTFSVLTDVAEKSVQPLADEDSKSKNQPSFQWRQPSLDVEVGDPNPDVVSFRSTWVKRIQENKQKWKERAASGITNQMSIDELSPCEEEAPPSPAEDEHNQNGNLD
T2 sequence (Q14432 whole entry): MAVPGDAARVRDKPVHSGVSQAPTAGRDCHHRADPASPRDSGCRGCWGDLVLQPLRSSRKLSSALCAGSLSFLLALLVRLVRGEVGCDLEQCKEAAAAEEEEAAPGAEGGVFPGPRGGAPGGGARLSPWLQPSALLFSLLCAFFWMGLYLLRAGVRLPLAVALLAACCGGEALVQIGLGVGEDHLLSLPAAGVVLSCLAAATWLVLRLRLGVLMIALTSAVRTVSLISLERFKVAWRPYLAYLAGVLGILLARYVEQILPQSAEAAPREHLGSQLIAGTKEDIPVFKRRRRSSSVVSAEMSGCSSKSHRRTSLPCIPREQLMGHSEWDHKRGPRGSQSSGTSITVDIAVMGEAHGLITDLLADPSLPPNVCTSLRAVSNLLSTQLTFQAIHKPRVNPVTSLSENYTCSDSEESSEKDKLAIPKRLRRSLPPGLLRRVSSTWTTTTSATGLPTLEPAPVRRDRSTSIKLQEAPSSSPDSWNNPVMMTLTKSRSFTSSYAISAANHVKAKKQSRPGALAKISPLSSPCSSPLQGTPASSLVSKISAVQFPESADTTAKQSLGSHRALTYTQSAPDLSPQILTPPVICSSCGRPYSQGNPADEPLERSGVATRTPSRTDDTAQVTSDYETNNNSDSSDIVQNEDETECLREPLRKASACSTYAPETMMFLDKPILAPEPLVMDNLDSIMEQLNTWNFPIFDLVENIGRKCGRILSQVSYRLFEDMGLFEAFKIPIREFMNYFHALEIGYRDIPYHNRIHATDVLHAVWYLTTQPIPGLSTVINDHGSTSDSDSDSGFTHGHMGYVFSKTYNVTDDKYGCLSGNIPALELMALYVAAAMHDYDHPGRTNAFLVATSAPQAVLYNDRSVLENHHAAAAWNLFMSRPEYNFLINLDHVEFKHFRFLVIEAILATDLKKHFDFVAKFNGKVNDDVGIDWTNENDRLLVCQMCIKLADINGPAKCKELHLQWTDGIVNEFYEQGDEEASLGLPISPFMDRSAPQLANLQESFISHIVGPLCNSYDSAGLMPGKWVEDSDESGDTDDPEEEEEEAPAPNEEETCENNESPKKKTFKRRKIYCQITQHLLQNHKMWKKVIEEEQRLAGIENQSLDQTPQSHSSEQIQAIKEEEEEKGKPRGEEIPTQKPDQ
T3 sequence (Q07343 whole entry): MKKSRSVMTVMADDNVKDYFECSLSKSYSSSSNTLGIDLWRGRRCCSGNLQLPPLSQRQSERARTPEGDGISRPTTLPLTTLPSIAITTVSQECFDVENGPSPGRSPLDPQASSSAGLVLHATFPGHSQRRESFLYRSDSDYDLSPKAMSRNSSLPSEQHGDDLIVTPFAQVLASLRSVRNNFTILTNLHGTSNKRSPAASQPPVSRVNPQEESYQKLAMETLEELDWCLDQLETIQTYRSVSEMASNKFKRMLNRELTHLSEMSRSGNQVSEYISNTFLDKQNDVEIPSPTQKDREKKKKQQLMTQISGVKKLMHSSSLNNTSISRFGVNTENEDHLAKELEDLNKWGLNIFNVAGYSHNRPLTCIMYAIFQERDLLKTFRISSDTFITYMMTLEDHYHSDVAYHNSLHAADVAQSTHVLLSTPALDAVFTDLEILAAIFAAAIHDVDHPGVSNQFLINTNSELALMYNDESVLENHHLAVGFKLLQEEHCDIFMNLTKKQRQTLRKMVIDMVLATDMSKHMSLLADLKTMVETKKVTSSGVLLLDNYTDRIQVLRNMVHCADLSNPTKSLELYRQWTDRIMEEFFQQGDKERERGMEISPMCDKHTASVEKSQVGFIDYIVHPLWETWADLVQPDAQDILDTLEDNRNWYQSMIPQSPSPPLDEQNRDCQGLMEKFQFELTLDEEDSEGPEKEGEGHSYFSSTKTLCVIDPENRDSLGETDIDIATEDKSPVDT

Structure (SMILES) | IC50 [1] [µM] | IC50 [2] [µM] | IC50 [3] [µM] | IC50 [4] [µM] | IC50 [5] [µM] | decrease in TGF-β1-induced expression of ACTA2 [6] | decrease in TGF-β1-induced expression of COL1A1 [6] | decrease in TGF-β1-induced expression of MYH11 [6] | decrease in TGF-β1-induced expression of SM22 [6] | decrease in TGF-β1-induced expression of TNC [6] | TGF-β1-induced cellular content of α-SMA and collagen I [7] | IC50 [8] [µM]
Cn1c(=O)c2c(nc(NCc3ccco3)n2CCCC(=O)NN=Cc2ccc(O)cc2O)n(C)c1=O [Compound 832, N′-(2,4-dihydroxybenzylidene)-4-(8-((furan-2-ylmethyl)amino)-1,3-dimethyl-2,6-dioxo-1,2,3,6-tetrahydro-7H-purin-7-yl)butanehydrazide] | 0.04 | 0.125 | 4.4 | 10.5 |  |  |  |  |  |  |  | 
CCCCOc1nc2c(c(=O)n(C)c(=O)n2C)n1CCCC(=O)Nc1cc(C(C)(C)C)ccc1O [Compound 145, 4-(8-butoxy-1,3-dimethyl-2,6-dioxo-1,2,3,6-tetrahydro-7H-purin-7-yl)-N-(5-(tert-butyl)-2-hydroxyphenyl)butanamide] |  |  |  |  | 73.2 | two-fold | four-fold | five-fold | nine-fold | five-fold | significantly reduced the levels of both proteins | 13.8
